In patent US10800791B2, “Triazole ACC inhibitors and uses thereof” (Gilead Apollo, LLC, priority 2015, dated 2020) one finds IC50 and MIC data, which are given here for eight compounds.

Molecules are shown by their SMILES. In brackets after ≈: the same amount, converted by molar mass. Like-named read-outs stand apart in the source and are kept apart here.

For one assay, the target named is human (hACC2) (Homo sapiens, UniProt O00763). Nature of the assay: In vitro ACC inhibition assay (ADP-Glo), hACC2. The class given is biochemical. The settings on record: 5 nM ACC2, 20 μM ATP, 20 μM acetyl-CoA. The protocol: The detailed procedure is as follows. […] 10 μL ADP glo reagent was added. […] 20 μL kinase detection reagent was added.
Chain of human (hACC2) (O00763 whole entry): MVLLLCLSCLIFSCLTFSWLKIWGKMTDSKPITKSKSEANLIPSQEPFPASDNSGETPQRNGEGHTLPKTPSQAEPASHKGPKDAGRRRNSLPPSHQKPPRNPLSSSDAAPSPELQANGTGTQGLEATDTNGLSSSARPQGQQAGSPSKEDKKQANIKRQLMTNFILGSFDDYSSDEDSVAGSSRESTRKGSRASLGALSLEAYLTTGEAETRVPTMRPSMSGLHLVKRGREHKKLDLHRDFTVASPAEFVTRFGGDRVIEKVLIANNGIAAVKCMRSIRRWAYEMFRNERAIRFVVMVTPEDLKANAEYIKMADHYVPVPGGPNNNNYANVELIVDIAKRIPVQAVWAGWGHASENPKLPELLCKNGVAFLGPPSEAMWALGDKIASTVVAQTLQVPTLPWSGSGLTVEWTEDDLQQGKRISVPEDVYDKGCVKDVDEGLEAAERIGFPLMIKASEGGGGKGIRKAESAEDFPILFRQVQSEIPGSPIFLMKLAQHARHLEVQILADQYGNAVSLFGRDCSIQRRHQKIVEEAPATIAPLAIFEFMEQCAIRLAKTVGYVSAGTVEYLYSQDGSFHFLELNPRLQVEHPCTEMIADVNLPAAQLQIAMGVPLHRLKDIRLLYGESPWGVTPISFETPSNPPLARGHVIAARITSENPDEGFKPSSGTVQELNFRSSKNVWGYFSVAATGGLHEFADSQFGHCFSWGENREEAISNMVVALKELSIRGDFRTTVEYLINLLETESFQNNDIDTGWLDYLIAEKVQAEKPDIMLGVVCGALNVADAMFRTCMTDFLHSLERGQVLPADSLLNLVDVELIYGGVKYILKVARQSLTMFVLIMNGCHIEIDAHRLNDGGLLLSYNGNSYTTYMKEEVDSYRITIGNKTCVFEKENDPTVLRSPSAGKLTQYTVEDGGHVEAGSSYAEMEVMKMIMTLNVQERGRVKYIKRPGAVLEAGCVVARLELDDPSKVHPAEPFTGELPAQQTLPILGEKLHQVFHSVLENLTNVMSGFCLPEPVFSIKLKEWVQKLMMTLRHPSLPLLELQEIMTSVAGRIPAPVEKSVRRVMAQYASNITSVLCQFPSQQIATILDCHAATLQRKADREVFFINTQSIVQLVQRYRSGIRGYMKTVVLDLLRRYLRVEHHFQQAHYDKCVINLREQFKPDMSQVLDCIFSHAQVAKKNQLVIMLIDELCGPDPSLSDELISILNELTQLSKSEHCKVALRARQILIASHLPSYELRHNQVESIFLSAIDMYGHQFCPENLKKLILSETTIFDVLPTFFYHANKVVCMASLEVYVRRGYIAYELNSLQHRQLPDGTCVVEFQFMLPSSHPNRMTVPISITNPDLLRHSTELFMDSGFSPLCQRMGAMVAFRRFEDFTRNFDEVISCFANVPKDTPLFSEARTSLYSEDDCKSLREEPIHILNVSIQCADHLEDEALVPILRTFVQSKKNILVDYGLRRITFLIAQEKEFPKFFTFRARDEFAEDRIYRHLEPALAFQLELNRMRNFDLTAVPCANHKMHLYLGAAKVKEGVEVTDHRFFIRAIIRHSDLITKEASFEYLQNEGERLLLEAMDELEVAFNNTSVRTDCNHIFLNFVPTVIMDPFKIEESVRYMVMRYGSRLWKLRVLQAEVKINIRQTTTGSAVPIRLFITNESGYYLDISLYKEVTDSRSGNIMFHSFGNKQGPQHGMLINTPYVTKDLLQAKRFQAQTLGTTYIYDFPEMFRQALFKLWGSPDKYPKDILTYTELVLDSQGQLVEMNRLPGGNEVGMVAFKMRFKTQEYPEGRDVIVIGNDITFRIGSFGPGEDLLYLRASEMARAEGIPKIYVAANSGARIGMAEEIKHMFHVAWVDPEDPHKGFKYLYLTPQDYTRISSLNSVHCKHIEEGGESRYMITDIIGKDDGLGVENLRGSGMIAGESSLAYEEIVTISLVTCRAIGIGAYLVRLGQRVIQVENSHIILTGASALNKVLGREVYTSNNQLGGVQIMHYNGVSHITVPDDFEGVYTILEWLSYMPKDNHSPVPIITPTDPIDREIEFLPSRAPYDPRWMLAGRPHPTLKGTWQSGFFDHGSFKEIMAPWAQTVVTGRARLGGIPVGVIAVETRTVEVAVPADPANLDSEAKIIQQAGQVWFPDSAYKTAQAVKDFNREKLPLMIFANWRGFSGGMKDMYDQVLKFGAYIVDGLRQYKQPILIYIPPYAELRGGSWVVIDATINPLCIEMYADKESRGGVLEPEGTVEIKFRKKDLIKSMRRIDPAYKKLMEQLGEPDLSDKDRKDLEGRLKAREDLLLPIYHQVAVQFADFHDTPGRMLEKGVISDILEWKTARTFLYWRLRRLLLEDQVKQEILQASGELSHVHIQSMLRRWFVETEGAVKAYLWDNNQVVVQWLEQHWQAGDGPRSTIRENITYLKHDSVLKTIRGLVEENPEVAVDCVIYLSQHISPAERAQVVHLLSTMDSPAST
A general note: ADP-Glo turns the ADP formed in a reaction into a luminescent signal.

The subject of the next assay is C. albicans. Nature of the assay: Antifungal Activity Assay (broth microtiter MIC), C. albicans. The class given is cell-based, Candida albicans. The conditions noted are these: Candida albicans, ATCC90028, 48 h, ATCC 90028, 3 replicates, MIC recorded at 48 h, read-out: MIC, C. albicans ATCC 90028. The protocol:
(§1) Compounds of the present invention were evaluated in an Antifungal Activity Assay. An exemplary procedure for the assay, which measures the susceptibility of various Candida species to antifungal compounds, follows. Compounds to be tested (including fluconazole and amphotericin B) were dissolved in DMSO to obtain a solution having a concentration of 1 mg/mL. These stock solutions were sterile filtered using a 0.22 um nylon syringe filter, then diluted in sterile water to achieve a final concentration of 128 μg/mL.
(§2) All species were grown from frozen stock by directly plating on to freshly prepared Sabouraud Dextrose agar (BD, Difco) and incubated overnight in ambient air at 35° C. for 24 h. A direct suspension was prepared in RPMI 1640+MOPS (Lonza, Biowhittaker) by taking individual colonies from the overnight cultures using sterile swabs soaked in sterile saline. The concentration of the suspension was determined using pre-determined standard curves. These suspensions were then diluted down to 5×10^3 CFU/mL to achieve a final concentration of 2.5×10^3 CFU/mL once added to the microtiter plate as per CLSI guidelines (M27-A3, Vol. 28 No. 14).
(§3) Broth microtiter MIC challenge plates were prepared following CLSI guidelines (M27-A3, Vol. 28 No. 14). The original CLSI guidelines focused on reading Candida MICs after 48 h of incubation. As reading after only 24 h offers a clear advantage of patient care, QC limits are being established for all drugs at 24 h. That being said there are no known interpretive breakpoints for amphotericin B at 24 h and the current fluconazole interpretive breakpoints are based on a 48 h reading. The MICs for the test compounds were recorded at 48 h. All MIC determinations were achieved by visually comparing the growth found in the antibiotic challenged wells to that of the growth control.

The test system of the next assay is C. krusei. Description: Antifungal Activity Assay (broth microtiter MIC), C. krusei. It counts as cell-based, Candida krusei. The settings on record: Pichia kudriavzevii, ATCC6258, 48 h, ATCC 6258, 3 replicates, MIC recorded at 48 h, read-out: MIC, C. krusei ATCC 6258. The protocol: as §1, §2, §3
A further assay has as its system C. parapsilosis. Description: Antifungal Activity Assay (broth microtiter MIC), C. parapsilosis. It counts as cell-based, Candida parapsilosis. The conditions noted are these: Lodderomyces parapsilosis, ATCC22019, 48 h, ATCC 22019, 3 replicates, MIC recorded at 48 h, read-out: MIC, C. parapsilosis ATCC 22019. The procedure:
as §1, §2, §3

A further assay addresses fungal (fACC2) (UniProt Q00955). The conditions noted are these: read-out: fACC2 (in vitro ACC2 Inhibition Assay, IC50), ADP-Glo, 5 nM ACC2, 20 μM ATP, 20 μM acetyl-CoA.

Chain of fungal (fACC2) (Q00955 whole entry): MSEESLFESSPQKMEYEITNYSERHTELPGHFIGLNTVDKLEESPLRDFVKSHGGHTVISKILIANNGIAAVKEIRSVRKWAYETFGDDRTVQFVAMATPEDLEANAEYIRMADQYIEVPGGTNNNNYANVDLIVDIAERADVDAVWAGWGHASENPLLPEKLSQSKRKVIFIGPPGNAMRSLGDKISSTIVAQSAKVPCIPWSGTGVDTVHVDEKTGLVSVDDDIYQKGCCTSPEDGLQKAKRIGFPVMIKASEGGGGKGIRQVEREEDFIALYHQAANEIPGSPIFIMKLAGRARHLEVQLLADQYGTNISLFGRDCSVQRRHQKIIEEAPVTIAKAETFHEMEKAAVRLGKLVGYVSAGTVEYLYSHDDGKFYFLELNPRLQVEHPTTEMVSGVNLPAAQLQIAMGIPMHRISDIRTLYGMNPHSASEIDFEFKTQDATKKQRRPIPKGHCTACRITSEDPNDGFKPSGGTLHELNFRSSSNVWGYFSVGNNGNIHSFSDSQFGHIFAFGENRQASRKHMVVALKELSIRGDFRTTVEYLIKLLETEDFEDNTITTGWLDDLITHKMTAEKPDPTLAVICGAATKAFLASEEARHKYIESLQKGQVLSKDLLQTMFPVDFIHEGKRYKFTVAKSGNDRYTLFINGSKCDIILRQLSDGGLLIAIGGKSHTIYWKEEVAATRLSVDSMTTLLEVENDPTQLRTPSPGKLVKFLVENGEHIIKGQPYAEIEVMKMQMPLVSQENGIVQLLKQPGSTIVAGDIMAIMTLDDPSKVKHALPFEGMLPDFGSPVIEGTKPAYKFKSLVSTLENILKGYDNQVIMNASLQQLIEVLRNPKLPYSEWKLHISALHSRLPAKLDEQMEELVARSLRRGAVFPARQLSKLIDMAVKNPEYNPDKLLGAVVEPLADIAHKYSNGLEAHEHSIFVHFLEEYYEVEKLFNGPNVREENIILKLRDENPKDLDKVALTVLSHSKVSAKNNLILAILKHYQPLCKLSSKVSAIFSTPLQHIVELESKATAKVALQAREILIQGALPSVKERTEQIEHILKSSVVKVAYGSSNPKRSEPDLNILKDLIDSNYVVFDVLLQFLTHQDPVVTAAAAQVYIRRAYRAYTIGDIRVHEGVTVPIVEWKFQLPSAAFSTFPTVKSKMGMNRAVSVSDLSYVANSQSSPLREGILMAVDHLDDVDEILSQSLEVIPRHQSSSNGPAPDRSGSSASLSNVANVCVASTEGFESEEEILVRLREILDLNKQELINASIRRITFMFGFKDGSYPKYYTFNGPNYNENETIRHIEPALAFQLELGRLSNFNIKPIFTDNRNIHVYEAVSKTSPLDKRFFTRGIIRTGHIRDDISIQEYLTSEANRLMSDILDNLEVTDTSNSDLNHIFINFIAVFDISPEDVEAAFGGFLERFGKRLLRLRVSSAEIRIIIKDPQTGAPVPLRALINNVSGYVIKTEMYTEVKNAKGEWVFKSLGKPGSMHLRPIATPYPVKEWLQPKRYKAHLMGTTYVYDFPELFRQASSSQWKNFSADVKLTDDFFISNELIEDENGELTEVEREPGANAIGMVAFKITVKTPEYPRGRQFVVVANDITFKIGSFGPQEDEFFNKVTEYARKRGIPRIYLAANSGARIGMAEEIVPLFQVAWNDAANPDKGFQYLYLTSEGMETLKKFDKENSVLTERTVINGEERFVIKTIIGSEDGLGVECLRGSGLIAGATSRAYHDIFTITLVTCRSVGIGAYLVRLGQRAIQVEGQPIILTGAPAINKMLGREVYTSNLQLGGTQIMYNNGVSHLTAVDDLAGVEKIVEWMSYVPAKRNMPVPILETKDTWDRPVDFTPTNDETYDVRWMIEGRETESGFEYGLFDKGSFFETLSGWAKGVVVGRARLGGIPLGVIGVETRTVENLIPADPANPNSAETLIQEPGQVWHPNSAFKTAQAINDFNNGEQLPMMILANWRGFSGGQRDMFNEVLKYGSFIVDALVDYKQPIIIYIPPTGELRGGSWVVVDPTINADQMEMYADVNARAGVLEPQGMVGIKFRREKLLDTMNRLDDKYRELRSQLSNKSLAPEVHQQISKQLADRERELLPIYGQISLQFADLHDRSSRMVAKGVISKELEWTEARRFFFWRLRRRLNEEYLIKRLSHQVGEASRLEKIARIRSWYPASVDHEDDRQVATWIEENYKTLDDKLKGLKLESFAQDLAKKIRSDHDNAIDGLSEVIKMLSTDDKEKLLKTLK

With `CCc1ccc(F)cc1[C@H](Cn1c(=O)n(C(C)(C)C(=O)NC(C)C)c(=O)c2c(C)c(-n3nccn3)sc21)OCC(C)(C)O` (stereo in doubt) [Compound I-240], the 50% inhibitory concentration (IC50) (as a rule, the concentration that inhibits the measured activity by half) is 10 to 40 nM against human (hACC2) (Table 2b, additional results) and 1 to 5 nM on fungal (fACC2) (Table 2b, additional results). For the same compound, the MIC (usually the lowest concentration found to suppress growth) was 1.01 to 2 µg/mL (≈ 1.64 to 3.25 µM) with C. albicans (Table 3b (additional results)), above 4.01 µg/mL with C. krusei (Table 3b (additional results)) and 2.01 to 4 µg/mL (≈ 3.27 to 6.51 µM) in the assay with C. parapsilosis (Table 3b (additional results)).
The matching figures for `CCc1ccc(F)cc1[C@@H](Cn1c(=O)n(C(C)(C)C(=O)NC(C)C)c(=O)c2c(C)c(-n3nccn3)sc21)OCC(C)(C)O` (stereo in doubt) [Compound I-241]: above 40 nM, 5 to 10 nM, 1.01 to 2 µg/mL (≈ 1.64 to 3.25 µM), above 4.01 µg/mL and 2.01 to 4 µg/mL (≈ 3.27 to 6.51 µM).
On to `COCCO[C@@H](Cn1c(=O)n([C@@H](C)C(=O)NC(C)C)c(=O)c2c(C)c(-n3nccn3)sc21)c1cc(F)ccc1OC` [Compound I-83, (S)-2-(1-((R)-2-(5-fluoro-2-methoxyphenyl)-2-(2-methoxy-ethoxy)ethyl)-5-methyl-2,4-dioxo-6-(2H-1,2,3-triazol-2-yl)-1,4-dihydrothieno[2,3-d]pyrimidin-3(2H)-yl)-N-isopropylpropanamide], for which the IC50 at human (hACC2) (Table 2a) is above 40 nM; at human (hACC2) (Table 2b, additional results) it was above 40 nM; on fungal (fACC2) (Table 2a), 1 to 5 nM; on fungal (fACC2) (Table 2b, additional results), 1 to 5 nM. The MIC with C. albicans (Table 3a) was 2.1 to 4 µg/mL (≈ 3.57 to 6.8 µM); with C. albicans (Table 3b (additional results)), above 4.01 µg/mL; with C. krusei (Table 3a), 2.1 to 4 µg/mL (≈ 3.57 to 6.8 µM); in the assay on C. krusei (Table 3b (additional results)), 2.01 to 4 µg/mL (≈ 3.41 to 6.8 µM); in the assay on C. parapsilosis (Table 3a) it was 2.1 to 4 µg/mL (≈ 3.57 to 6.8 µM); in the assay on C. parapsilosis (Table 3b (additional results)), 1.01 to 2 µg/mL (≈ 1.72 to 3.4 µM).
On to `[2H]C([2H])([2H])Oc1ccccc1[C@H](Cn1c(=O)n(C(C)(C)C(N)=O)c(=O)c2c(C)c(-n3nccn3)sc21)OC1CCOCC1` [Compound I-92], for which the IC50 at human (hACC2) (Table 2a) lay within 5 to 10 nM; against human (hACC2) (Table 2b, additional results), 5 to 10 nM. The MIC with C. albicans (Table 3a) lay within 0.25 to 1 µg/mL (≈ 0.437 to 1.75 µM); with C. albicans (Table 3b (additional results)) it was 0.25 to 1 µg/mL (≈ 0.437 to 1.75 µM); in the assay on C. krusei (Table 3a), 0.25 to 1 µg/mL (≈ 0.437 to 1.75 µM); in the assay on C. krusei (Table 3b (additional results)) it was 1.01 to 2 µg/mL (≈ 1.77 to 3.5 µM); in the assay on C. parapsilosis (Table 3a), 1.1 to 2 µg/mL (≈ 1.92 to 3.5 µM); with C. parapsilosis (Table 3b (additional results)) it was 2.01 to 4 µg/mL (≈ 3.52 to 7 µM).
For `COc1ccc(F)cc1[C@H](Cn1c(=O)n(C(C)(C)C(=O)O)c(=O)c2c(C)c(-n3nccn3)sc21)OC(C)C` [Compound I-93], the IC50 on human (hACC2) (Table 2a) lay within 5 to 10 nM; against human (hACC2) (Table 2b, additional results), 5 to 10 nM. The minimal inhibitory concentration (MIC) was 2.1 to 4 µg/mL (≈ 3.85 to 7.33 µM) in the assay on C. albicans (Table 3a); 2.01 to 4 µg/mL (≈ 3.68 to 7.33 µM) in the assay with C. albicans (Table 3b (additional results)); 2.1 to 4 µg/mL (≈ 3.85 to 7.33 µM) with C. krusei (Table 3a); 1.01 to 2 µg/mL (≈ 1.85 to 3.67 µM) in the assay on C. krusei (Table 3b (additional results)); above 4.1 µg/mL in the assay on C. parapsilosis (Table 3a); above 4.01 µg/mL with C. parapsilosis (Table 3b (additional results)).
Take `COc1ccc(F)cc1[C@H](Cn1c(=O)n(C(C)(C)C(=O)O)c(=O)c2c(C)c(-n3nccn3)sc21)OCC(C)C` [Compound I-94]: the IC50 against human (hACC2) (Table 2a) was 1 to 5 nM; at human (hACC2) (Table 2b, additional results), 1 to 5 nM. In addition, the MIC was 0.25 to 1 µg/mL (≈ 0.447 to 1.79 µM) with C. albicans (Table 3a); 2.01 to 4 µg/mL (≈ 3.59 to 7.15 µM) with C. albicans (Table 3b (additional results)); 2.1 to 4 µg/mL (≈ 3.75 to 7.15 µM) in the assay with C. krusei (Table 3a); 2.01 to 4 µg/mL (≈ 3.59 to 7.15 µM) in the assay with C. krusei (Table 3b (additional results)); 2.1 to 4 µg/mL (≈ 3.75 to 7.15 µM) with C. parapsilosis (Table 3a); above 4.01 µg/mL with C. parapsilosis (Table 3b (additional results)).
In the case of `COc1ccc(F)cc1[C@H](Cn1c(=O)n(C(C)(C)C(=O)N2CC(O)C2)c(=O)c2c(C)c(-n3nccn3)sc21)OCC(C)C` [Compound I-95], the IC50 at human (hACC2) (Table 2a) lay in the range of 5 to 10 nM; against human (hACC2) (Table 2b, additional results) it was 5 to 10 nM. Moreover, the MIC was 1.1 to 2 µg/mL (≈ 1.79 to 3.25 µM) with C. albicans (Table 3a); 2.01 to 4 µg/mL (≈ 3.27 to 6.51 µM) with C. albicans (Table 3b (additional results)); 1.1 to 2 µg/mL (≈ 1.79 to 3.25 µM) in the assay on C. krusei (Table 3a); 1.01 to 2 µg/mL (≈ 1.64 to 3.25 µM) in the assay on C. krusei (Table 3b (additional results)); 1.1 to 2 µg/mL (≈ 1.79 to 3.25 µM) with C. parapsilosis (Table 3a); 2.01 to 4 µg/mL (≈ 3.27 to 6.51 µM) with C. parapsilosis (Table 3b (additional results)).
`COc1ccccc1[C@H](Cn1c(=O)n(C(C)(C)C(=O)O)c(=O)c2c(C)c(-n3nccn3)sc21)OC1CCOCC1` [Compound I-96]: the IC50 on human (hACC2) (Table 2a) was in the range of 1 to 5 nM; at human (hACC2) (Table 2b, additional results), 1 to 5 nM; at fungal (fACC2) (Table 2a), 1 to 5 nM; at fungal (fACC2) (Table 2b, additional results) it was 1 to 5 nM. Moreover, the MIC in the assay on C. albicans (Table 3a) fell in the range of 2.1 to 4 µg/mL (≈ 3.69 to 7.02 µM); in the assay with C. albicans (Table 3b (additional results)), 1.01 to 2 µg/mL (≈ 1.77 to 3.51 µM); with C. krusei (Table 3a), 2.1 to 4 µg/mL (≈ 3.69 to 7.02 µM); in the assay on C. krusei (Table 3b (additional results)), 2.01 to 4 µg/mL (≈ 3.53 to 7.02 µM); in the assay on C. parapsilosis (Table 3a) it was 2.1 to 4 µg/mL (≈ 3.69 to 7.02 µM); in the assay with C. parapsilosis (Table 3b (additional results)), 2.01 to 4 µg/mL (≈ 3.53 to 7.02 µM).
